Data taken from patent US7488738B2, “Aminophenoxyacetic acid derivatives and pharmaceutical composition containing thereof” (Asubio Pharma Co., Ltd., priority 1998, dated 2009).

What follows are compounds tested on cells of cerebral cortex (assay: Cytoprotective effect against glutamate induced cell death (MTT)). Conditions: compound 1 μM added 24 h before 1 mM glutamate, fetal rat cerebral cortex cells, control group = 100%.
Assay type: cell-based, rats of Wister strain
Experimental: Biological Test 1: Cytoprotective Effect Against Glutamate Induced Cell Death
In accordance with the method of M. P. Mattoson [M. P. Mattoson, Brain Res. Rev., 13, 179 (1988)], brain of 18-days fetus rats of Wister strain were taken out. Then, cells of cerebral cortex (4×10^5 cells/ml) were seeded on poly-L-lysine coated 96 wells flat bottom plate (Sumitomo Bakelite Co., Ltd.) in concentration of 4×10^4 cells/each well. After 48 hours of incubation, 1 μM of test compounds were added, then after further 24 hours, 1 mM of glutamate were further added for inducing the cell injury. 12 hours after adding glutamate, MTT [3-(4,5-dimethylthiazol)-2,5-diphenyltetrazolium bromide] was added and incubated for 6 hours.
After incubation, 200 μl of dimethy sulfoxide was added to each wells, and the amounts of reduced MTT were calorimetrically analyzed by Micro ELISA Reader using 570 nm of main-wavelength and 650 nm of sub-wavelength.
The effect of the test compounds was determined as the survival rate of living cells (%) according to the following equation: Survival rate of living cells (%)=[(test compound group−glutamate treated group)÷(control group−glutamate treated group)]×100
That is, the survival rate of living cells after incubation of the control group was converted to 100%, and the survival data of living cells of the tested compounds was shown in Table II.

Row | Structure (SMILES) | Survival Rate (%) (Compound: 1 μM)
1 | Cc1cc(OC(C)(C)C(=O)N(C)C2CCN(CC(=O)NC3(c4ccccc4)CC3)CC2)c(C)c(C)c1N [Compound 69, 2-(4-Amino-2,3,5-trimethylphenoxy)-2-methyl-N-methyl-N-[1-(2-(1-phenylcyclopropyl)amino-2-oxyethyl)-4-piperidinyl]propamide] | 68%
2 | Cc1cc(OCC(=O)NC2CCN(CC(=O)Nc3ccccc3)CC2)c(C)c(C)c1N [Compound 85, 2-(4-Amino-2,3,5-trimethylphenoxy)-N-[1-(2-anilino-2-oxyethyl)-4-piperidinyl]acetamide] | 98%
3 | CCN(C(=O)CNc1c(C)c(C)c(N)c(C)c1C)C1CCN(CC2(c3ccccc3)CC2)CC1 [Compound 88, 2-(4-Amino-2,3,5,6-tetramethylanilino)-N-ethyl-N-[1-(1-phenyl-1-cyclopropane)methyl-4-piperidinyl]acetamide] | 81%
4 | Cc1c(C)c(NCC(=O)N(C)C2CCN(CC(=O)Nc3ccccc3)CC2)c(C)c(C)c1N [Compound 41, 2-(4-Amino-2,3,5,6-tetramethylanilino)-N-[1-(2-anilino-2-oxyethyl)-4-piperidinyl]-N-methylacetamide] | 86%
5 | Cc1cc(OC(C)(C)C(=O)NC2CCN(CC(=O)Nc3ccccc3)CC2)c(C)c(C)c1N [Compound 82, 2-(4-Amino-2,3,5-trimethylphenoxy)-2-methyl-N-[1-(2-anilino-2-oxyethyl)-4-piperidinyl]propamide] | 149%
6 | Cc1cc(OC(C)C(=O)NC2CCN(C/C=C/c3ccccc3)CC2)c(C)c(C)c1N (stereo not shown) [Compound 84, 2-(4-Amino-2,3,5-trimethylphenoxy)-N-[1-(3-phenyl-2-(E)-propenyl)-4-piperidinyl]propamide] | 87%
7 | Cc1cc(OCC(=O)N(C)C2CCN(CC(=O)Nc3cccc(Cl)c3C)CC2)c(C)c(C)c1N [Compound 45, 2-(4-Amino-2,3,5-trimethylphenoxy)-N-[1-(2-(3-chloro-2-methyl)anilino-2-oxyethyl)-4-piperidinyl]-N-methylacetamide] | 190%
8 | Cc1cc(OC(C)(C)C(=O)N(C)C2CCN(CCc3ccccc3)CC2)c(C)c(C)c1N [Compound 38, 2-(4-Amino-2,3,5-trimethylphenoxy)-2-methyl-N-methyl-N-[1-(2-phenethyl)-4-piperidinyl]propamide] | 114%
9 | Cc1cc(OC(C)C(=O)NC2CCN(CC(=O)NC3(c4ccccc4)CC3)CC2)c(C)c(C)c1N (stereo not shown) [Compound 102, 2-(4-Amino-2,3,5-trimethylphenoxy)-N-[1-(2-(1-phenylcyclopropyl)amino-2-oxyethyl)-4-piperidinyl]propamide] | 89%
10 | Cc1cc(OC(C)C(=O)N(C)C2CCN(CC(=O)Nc3c(C)cccc3C)CC2)c(C)c(C)c1N (stereo not shown) [Compound 61, 2-(4-Amino-2,3,5-trimethylphenoxy)-N-[1-(2-(2,6-dimethylanilino)-2-oxyethyl)-4-piperidinyl]-N-methylpropamide] | 58%
11 | Cc1cc(OC(C)C(=O)N(C)C2CCN(CC(=O)Nc3ccccc3C(C)(C)C)CC2)c(C)c(C)c1N (stereo not shown) [Compound 60, 2-(4-Amino-2,3,5-trimethylphenoxy)-N-[1-(2-(2-tert-butylanilino)-2-oxyethyl)-4-piperidinyl]-N-methylpropamide] | 60%
12 | Cc1c(C)c(NCC(=O)N(C)C2CCN(CC3(c4ccccc4)CC3)CC2)c(C)c(C)c1N [Compound 70, 2-(4-Amino-2,3,5,6-tetramethylanilino)-N-methyl-N-[1-(1-phenyl-1-cyclopropane)methyl-4-piperidinyl]acetamide] | 88%
13 | CN(C(=O)CNc1c(Cl)cc(N)cc1Cl)C1CCN(CC(=O)Nc2ccccc2)CC1 [Compound 139, 2-(4-Amino-2,6-dichloroanilino)-N-[1-(2-anilino-2-oxyethyl)-4-piperidinyl]-N-methylacetamide] | 53%
14 | Cc1cc(OC(C)(C)C(=O)NC2CCN(C/C=C/c3ccccc3)CC2)c(C)c(C)c1N [Compound 80, 2-(4-Amino-2,3,5-trimethylphenoxy)-2-methyl-N-[1-(3-phenyl-2-(E)-propenyl)-4-piperidinyl]propamide] | 99%
15 | Cc1cc(OC(C)(C)C(=O)N(C)C2CCN(CC(=O)Nc3cccc(Cl)c3C)CC2)c(C)c(C)c1N [Compound 48, 2-(4-Amino-2,3,5-trimethylphenoxy)-2-methyl-N-[1-(2-(3-chloro-2-methyl)anilino-2-oxyethyl)-4-piperidinyl]-N-methylpropamide] | 207%
16 | Cc1cc(OC(C)(C)C(=O)N(C)C2CCN(CC(=O)Nc3cc(Cl)c(N)cc3Cl)CC2)c(C)c(C)c1N [Compound 79, 2-(4-Amino-2,3,5-trimethylphenoxy)-2-methyl-N-[1-(2-(4-amino-2,5-dichloro)anilino-2-oxyethyl)-4-piperidinyl]-N-methylpropamide] | 79%
17 | Cc1cc(OC(C)C(=O)NC2CCN(CC3(c4ccccc4)CC3)CC2)c(C)c(C)c1N (stereo not shown) [Compound 101, 2-(4-Amino-2,3,5-trimethylphenoxy)-N-[1-(1-phenyl-1-cyclopropane)methyl-4-piperidinyl]propamide] | 138%
18 | Cc1cc(OC(C)(C)C(=O)NC2CCN(CC3(c4ccccc4)CC3)CC2)c(C)c(C)c1N [Compound 81, 2-(4-Amino-2,3,5-trimethylphenoxy)-2-methyl-N-[1-(1-phenyl-1-cyclopropane)methyl-4-piperidinyl]propamide] | 97%
19 | Cc1cc(OC(C)C(=O)NC2CCN(CC(=O)Nc3ccccc3)CC2)c(C)c(C)c1N (stereo not shown) [Compound 83, 2-(4-Amino-2,3,5-trimethylphenoxy)-N-[1-(2-anilino-2-oxyethyl)-4-piperidinyl]propamide] | 65%
20 | Cc1cc(OCC(=O)N(C)C2CCN(CC(=O)Nc3ccccc3C(C)(C)C)CC2)c(C)c(C)c1N [Compound 46, 2-(4-Amino-2,3,5-trimethylphenoxy)-N-[1-(2-(2-tert-butyl)anilino-2-oxyethyl)-4-piperidinyl]-N-methylacetamide] | 101%
21 | Cc1c(C)c(N(C)CC(=O)N(C)C2CCN(CCc3ccccc3)CC2)c(C)c(C)c1N [Compound 120, 2-(4-Amino-2,3,5,6-tetramethyl-N-methylanilino)-N-methyl-N-[1-(2-phenethyl)-4-piperidinyl]acetamide] | 88%
22 | Cc1cc(NC(=O)CN2CCC(N(C)C(=O)C(C)(C)Oc3cc(C)c(N)c(C)c3C)CC2)c(C)cc1O [Compound 107, 2-(4-Amino-2,3,5-trimethylphenoxy)-2-methyl-N-[1-(2-(2,5-dimethyl-4-hydroxy)anilino-2-oxyethyl]-4-piperidinyl]-N-methylpropamide] | 227%

Same assay, conditions: compound 1 μM added 24 h before 1 mM glutamate, fetal rat cerebral cortex cells, control group = 100%, read-out: Survival Rate (%) (Compound: 1 μM)

Row | Structure (SMILES) | viability at 1 µM
23 | Cc1c(C)c(NCC(=O)N(C)C2CCN(Cc3ccccc3)CC2)c(C)c(C)c1N [Compound 110, 2-(4-Amino-2,3,5,6-tetramethylanilino)-N-(1-benzyl-4-piperidinyl]-N-methylacetamide] | 61%
24 | Cc1cc(C)c(NCC(=O)N(C)C2CCN(S(=O)(=O)c3ccccc3)CC2)c(C)c1N [Compound 130, 2-(3-Amino-2,4,6-trimethylanilino)-N-methyl-N-[1-(phenylsulfonyl)-4-piperidinyl]acetamide] | 60%
25 | Cc1cc(C)c(NCC(=O)N(C)C2CCN(Cc3ccccc3)CC2)c(C)c1N [Compound 131, 2-(3-Amino-2,4,6-trimethylanilino)-N-(1-benzyl-4-piperidinyl)-N-methylacetamide] | 65%
26 | Cc1cc(OCC(=O)NC2CCN(C/C=C/c3ccccc3)CC2)c(C)c(C)c1N [Compound 86, 2-(4-Amino-2,3,5-trimethylphenoxy)-N-[1-(3-phenyl-2-(E)-propenyl)-4-piperidinyl]acetamide] | 127%
27 | Cc1cc(C)c(NCC(=O)N(C)C2CCN(C/C=C/c3ccccc3)CC2)c(C)c1N [Compound 125, 2-(3-Amino-2,4,6-trimethylanilino)-N-methyl-N-[1-(3-phenyl-2-(E)-propenyl)-4-piperidinyl]acetamide] | 52%
28 | Cc1cc(OCC(=O)N(C)C2CCN(Cc3ccc4ccccc4n3)CC2)c(C)c(C)c1N [Compound 44, 2-(4-Amino-2,3,5-trimethylphenoxy)-N-methyl-N-[1-(2-quinolylmethyl)-4-piperidinyl]acetamide] | 93%
29 | Cc1cc(C)c(N(C)C)c(C)c1NCC(=O)N(C)C1CCN(C(=O)c2ccccc2)CC1 [Compound 135, N-(1-benzoyl-4-piperidinyl)-2-(3-dimethylamino-2,4,6-trimethylanilino)-N-methylacetamide] | 76%
30 | Cc1cc(OCC(=O)N(C)C2CCN(C/C=C/c3ccccc3)CC2)c(C)c(C)c1N [Compound 53, 2-(4-Amino-2,3,5-trimethylphenoxy)-N-methyl-N-[1-(3-phenyl-2-(E)-propenyl)-4-piperidinyl]acetamide] | 144%
31 | Cc1cc(C)c(NCC(=O)N(C)C2CCN(CC3CC3)CC2)c(C)c1N [Compound 129, 2-(3-Amino-2,4,6-trimethylanilino)-N-[1-(cyclopropylmethyl)-4-piperidinyl]-N-methylacetamide] | 64%
